Source: US7544691B2, “Guanidine derivatives” (Actelion Pharmaceuticals, Ltd., priority 2004, dated 2009)

Target: T1, NPFF1 receptor (Homo sapiens, UniProt Q9GZQ6)
T1 construct: expressed in transfected cells; host or cells: Chinese Hamster Ovary cells, CHOSP10 (membranes)
Experiment: NPFF receptor binding test (displacement of 125I-Tyr1-NPFF from CHOSP10 cell membranes)
Conditions: membranes of CHOSP10 cells producing NPFF1 receptor; 0.2 nM 125I-Tyr1-NPFF; 90 minutes at room temperature
Procedure: Compounds of Formula I were examined in the following test for their affinity to the NPFF receptors: Hamster cells suitable for neuropeptide FF receptor-binding studies (Chinese Hamster Ovary cells, CHOSP10) which in each case produce the NPFF1 or NPFF2 receptor, were multiplied in standard cell-culture conditions. The cell-culture medium was sucked out and 5 ml of buffer A (5 mM Tris pH=7.4, 1 mM MgCl2) added per 17 cm Petri dish. The cells were scraped off the cell-culture plate and transferred into a 50 ml Falcon vessel. The cells were then centrifuged for 5 minutes at 450 g, resuspended in buffer A once again and mixed for 30 seconds on a Polytron Vortexer. After centrifugation at 30,000 g for 20 minutes the supernatant was discarded and the membrane pellet taken up in 500 μl buffer C (75 mM Tris pH=7.4, 25 mM MgCl2, 250 mM sucrose, 0.1 mM PMSF, 0.1 mM phenanthroline). The membrane-buffer mixture was then divided into aliquots and deep-frozen. The protein content of an aliquot was determined by the Lowry method. The binding test was carried out in a final volume of 250 μl. 100 μl membrane-buffer mixture corresponding to 35 μg protein content was mixed with 95 μl binding buffer (50 mM Tris pH 7.4, 60 mM NaCl, 0.1% protease-free BSA, 0.01% NaN3). After addition of 5 μl of a concentration of test substance per measurement point in each case, 0.2 nM ^125I-Tyr1-NPFF (NEN, NEX381) per measurement point was added in 50 μl. After 90 minutes' incubation at room temperature the samples were sucked out through a GF/C filter (Millipore ([…]60)) and the filter was washed with ice cold binding buffer with 3 times 300 μl (Packard Filtermate). After addition of 55 μl Microscint 40 (Packard 6013641) scintillation fluid the measurement points were quantified in the gamma counter (Packard, Top Count NXT). Non-specific binding was ascertained in the presence of 1 μM unmarked neuropeptide FF. Specific binding is defined as the difference between total and non-specific binding. IC50 values are defined as that concentration of the antagonist which displaces 50% of the ^125I-marked neuropeptide FF. This concentration is ascertained by linear regression analysis after logit/log-transformation of the binding values.

T1 sequence (Q9GZQ6 whole entry): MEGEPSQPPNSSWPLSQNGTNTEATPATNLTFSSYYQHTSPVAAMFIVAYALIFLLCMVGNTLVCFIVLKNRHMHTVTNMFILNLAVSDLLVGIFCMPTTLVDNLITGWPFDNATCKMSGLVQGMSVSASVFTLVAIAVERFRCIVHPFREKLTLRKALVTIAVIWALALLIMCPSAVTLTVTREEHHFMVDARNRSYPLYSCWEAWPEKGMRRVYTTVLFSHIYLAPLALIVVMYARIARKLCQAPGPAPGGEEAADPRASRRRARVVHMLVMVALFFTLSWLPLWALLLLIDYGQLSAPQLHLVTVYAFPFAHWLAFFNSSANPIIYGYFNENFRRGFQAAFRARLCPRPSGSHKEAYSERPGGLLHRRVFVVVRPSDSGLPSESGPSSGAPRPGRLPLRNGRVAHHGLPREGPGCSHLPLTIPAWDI

IC50 [nM] | Structure (SMILES)
7 | Cc1nc(NC(=N)N)nc2c1C(C)CCC2 (racemic) [N-(4,5-dimethyl-5,6,7,8-tetrahydro-quinazolin-2-yl)-guanidine]
48 | Cc1nc(NC(=N)N)nc2c1CC(C)CC2 (racemic) [N-(4,6-dimethyl-5,6,7,8-tetrahydro-quinazolin-2-yl)-guanidine]
60 | Cc1nc(NC(=N)N)nc2c1CCCCCC2 (racemic) [N-(4-methyl-5,6,7,8,9,10-hexahydro-cyclooctapyrimidin-2-yl)-guanidine]
4 | Cc1nc(NC(=N)N)nc2c1CCCC2 (racemic) [N-(4-methyl-5,6,7,8-tetrahydro-quinazolin-2-yl)-guanidine]
54 | Cc1nc(NC(=N)N)nc2c1CCCCC2 (racemic) [N-(4-methyl-6,7,8,9-tetrahydro-5H-cycloheptapyrimidin-2-yl)-guanidine]
16 | Cc1nc(NC(=N)N)nc2c1CC(c1ccccc1)CC2 (racemic) [N-(4-methyl-6-phenyl-5,6,7,8-tetrahydro-quinazolin-2-yl)-guanidine]
1 | CCCC1CCc2nc(NC(=N)N)nc(C)c2C1 (racemic) [N-(4-methyl-6-propyl-5,6,7,8-tetrahydro-quinazolin-2-yl)-guanidine]
16 | Cc1nc(NC(=N)N)nc2c1CCCC2c1ccccc1 (racemic) [N-(4-methyl-8-phenyl-5,6,7,8-tetrahydro-quinazolin-2-yl)-guanidine]
2 | Cc1nc(NC(=N)N)nc2c1CC(C(C)C)CC2 (racemic) [N-(6-isopropyl-4-methyl-5,6,7,8-tetrahydro-quinazolin-2-yl)-guanidine]
8 | Cc1nc(NC(=N)N)nc2c1CC(C(C)(C)C)CC2 (racemic) [N-(6-tert-butyl-4-methyl-5,6,7,8-tetrahydro-quinazolin-2-yl)-guanidine]
73 | CCC(C)C1CCCc2c(C)nc(NC(=N)N)nc21 (racemic) [N-(8-sec-butyl-4-methyl-5,6,7,8-tetrahydro-quinazolin-2-yl)-guanidine]
39 | Cc1nc(NC(=N)N)nc2c1CCCC2C(C)(C)C (racemic) [N-(8-tert-butyl-4-methyl-5,6,7,8-tetrahydro-quinazolin-2-yl)-guanidine]
19 | CCC(C)(C)C1CCc2nc(NC(=N)N)nc(C)c2C1 (racemic) [N-[6-(1,1-dimethyl-propyl)-4-methyl-5,6,7,8-tetrahydro-quinazolin-2-yl]-guanidine]
